In data set [1] the test system is beta-receptor mediated tachycardia (dog heart rate). Kind of data set: beta-blockade in vivo in pentobarbital-anesthetized dogs, 40-minute infusion, inhibition of heart rate response to isoproterenol and recovery. Here is the method:
(§1) The duration of beta-blockage was determined in vivo using pentobarbital-anesthetized dogs instrumented for measurement of heart rate using a Beckman cardiotachometer triggered electronically by a phasic aortic blood pressure signal. Both vagus nerves were severed in the cervical region and the animals were mechanically ventilated. Two experimental designs were used. The first employed a 40-minute infusion of test compound and the second used a 3-hour infusion of test compound. In the 40-minute model, isoproterenol was infused into a foreleg vein at the rate of […] to induce a beta-receptor mediated tachcardia. Various doses of test compound were then infused into a femoral vein over a period of 40 minutes. This infusion was then terminated and recovery from blockade was quantitated. […] This cumulative dose is expressed as mg/kg and is an indication of potency. The time period required for 80% recovery of heart rate for each dose of test drug was also measured to quantitate duration of action. […] Test compound were dissolved in 0.9% NaCl and infused at a rate of 0.05 ml/Mg/min or less. In the 3-hour infusion model, bolus doses of isoproterenol ([…]) were used to assess the degree of beta-blockade and recovery from beta-blockage after termination of the infusion. The doses were spaced at 10-minute intervals and were given before, during and following the infusion of test compounds. The infusion rate was adjusted so that the end of the 3-hour infusion period the degree of isoproterenol inhibition averaged about 50% of control.

Data set [2] in a line: disappearance in vitro in human whole blood. Conditions: 37° C., 50 μg test compound, read-out: T1/2 Human Blood. In kind it is in vitro ADME. As to the method:
(§2) The rate of disappearance of a compound is expressed as the half-life (T1/2), which is the time period in which one-half of the initial amount of compound tested disappears. […] At the designated time periods, the test mixtures were removed from the incubator and transferred to a 0° C. ice bath. Acetonitrile (2 mL) was immediately added, and the mixtures were mixed to stop enzymatic hydrolysis. Zero time samples were prepared by adding 2 mL of acetonitrile to denature the proteins prior to addition of the test compounds. […] The half-life of each test compound was determined graphically by plotting the decrease in concentration as a function of time.

A short description of data set [3]: disappearance in vitro in dog whole blood. It counts as in vitro ADME. To be noted: 37° C., 50 μg test compound, read-out: T1/2 Dog Blood. As to the method: as §2
Data set [4] deals with T1, β-adrenergic receptors, guinea pig tracheal strips (Cavia porcellus, UniProt Q8K4Z4).
T1 construct: Spiral strips of guinea pig trachea; from tissue; host or cells: guinea pig trachea, spiral strips
Kind of data set: β-blocking activity in vitro, guinea pig tracheal strips (tension response to isoproterenol). In kind it is cell-based. Conditions: for pA2 Trachea: pA2 = -log KB, vs isoproterenol, 60-minute incubation, tracheal tension; for Kb: read-out: pA2 Trachea (converted). Here is the method:
(§3) Each tissue was suspended between a fixed glass rod and a Statham Universal Transducer connected to a Beckman recorder. Atria were allowed to beat spontaneously under a loading tension of approximately 0.5 g. Changes in rate of response to isoproterenol, a standard β-receptor agonist, were measured in the absence and presence of test compounds. Spiral strips of guinea pig trachea were suspended under 5 g resting tension and incubated with phentolamine, tropolone, and cocaine. Active tension was generated by addition of carbachol (3.0×10^-7 M) and decreases in tension in response to isoproterenol were quantitated. Cumulative concentration response curves were produced with isoproterenol both before and after 60-minute incubation of test compounds with atria and trachea. Compounds with β-blocking activitiy shifted concentration response curves to the right. […] The degree of cardioselectivity was estimated from the ratio KB trachea/KB atria 10(pA2 Atria -pA^2 Trachea). A ratio greater than one indicates cardioselectivity. […]

Data set [5] in a line: disappearance in vitro in dog liver homogenate. It counts as in vitro ADME. Conditions: 33% (w/v) dog liver homogenate, 37° C., 50 μg test compound; read-out: T1/2 Dog Liver. Here is the method: as §2
Data set [6] has as its system heart rate response to isoproterenol (dog). Kind of data set: beta-blockade in vivo in pentobarbital-anesthetized dogs, 3-hour infusion, inhibition of heart rate response to isoproterenol and recovery. Conditions: 80% recovery after 3-hour infusion. As to the method: as §1
Data set [7] relates to β-adrenergic receptors, guinea pig right atria. Kind of data set: β-blocking activity in vitro, guinea pig right atria (rate response to isoproterenol). In kind it is cell-based. Here is the method:
as §3

For data set [8], the target named is β-adrenergic receptors, guinea pig right atria (Cavia porcellus, UniProt H0W3H1). Described as above. It counts as cell-based. To be noted: read-out: pA2 Atria (converted). Here is the method: as §3
Setting [9] is: Canis lupus familiaris, iv, 40 min; read-out: Potency mg/kg/40 min.
The mark [10] stands for this setting: time for 80% recovery of heart rate after 40-minute i.v. infusion, dogs; in min.
[11] abbreviates: ratio KB trachea/KB atria, greater than one indicates cardioselectivity.

Where a name gives a salt, the structure may show the parent alone. Read-outs that look alike come from different tables or passages of the source. Where only a bound is given, the exact number is not on record here.

T1 sequence (Q8K4Z4 whole entry): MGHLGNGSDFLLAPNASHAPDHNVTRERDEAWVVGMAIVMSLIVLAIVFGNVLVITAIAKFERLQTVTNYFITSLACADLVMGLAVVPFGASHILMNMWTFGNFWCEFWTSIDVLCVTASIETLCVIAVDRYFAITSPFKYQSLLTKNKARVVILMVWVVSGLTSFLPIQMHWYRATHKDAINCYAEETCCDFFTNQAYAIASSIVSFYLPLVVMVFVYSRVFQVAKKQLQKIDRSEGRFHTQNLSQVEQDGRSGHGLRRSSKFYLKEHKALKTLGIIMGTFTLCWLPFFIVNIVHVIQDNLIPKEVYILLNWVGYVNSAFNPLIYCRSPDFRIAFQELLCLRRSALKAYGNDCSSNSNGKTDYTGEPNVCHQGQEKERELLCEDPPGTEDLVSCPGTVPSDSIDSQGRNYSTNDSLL
Sequence of β-adrenergic receptors, guinea pig right atria (Cavia porcellus, UniProt H0W3H1) (H0W3H1 1-470): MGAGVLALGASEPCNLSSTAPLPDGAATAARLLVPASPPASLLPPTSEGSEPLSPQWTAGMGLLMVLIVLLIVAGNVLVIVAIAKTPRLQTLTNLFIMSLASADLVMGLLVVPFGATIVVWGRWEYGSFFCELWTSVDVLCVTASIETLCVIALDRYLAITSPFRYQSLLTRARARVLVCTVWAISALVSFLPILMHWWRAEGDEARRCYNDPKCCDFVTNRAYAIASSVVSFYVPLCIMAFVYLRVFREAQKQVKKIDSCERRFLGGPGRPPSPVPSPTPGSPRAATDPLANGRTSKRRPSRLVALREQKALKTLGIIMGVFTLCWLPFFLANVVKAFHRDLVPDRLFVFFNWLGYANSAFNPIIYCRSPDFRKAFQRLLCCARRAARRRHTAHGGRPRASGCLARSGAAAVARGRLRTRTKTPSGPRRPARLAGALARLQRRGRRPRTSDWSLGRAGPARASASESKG

Turning to `COC(=O)Cc1ccc(OCC(O)CNC(C)C)cc1.Cl` (stereo not shown) [III, Methyl 4-[2-Hydroxy-3-(isopropylamino)propoxy]phenylacetate hydrochloride], the ED50 in data set [1] (setting [9]) is 2.3 ± 0.6 mg/kg. Besides, in data set [1] (setting [10]), the “80% Recovery Time” value is reported as 20 ± 5. Further, the results for the half-life in data set [2], in data set [3] and in data set [5] were 2 min, 60 min and 5 min, respectively. Also, in data set [4], the “pA2 Trachea” value is recorded as 5.4.
For the compound `CC(=O)Nc1ccc(OCC(O)CNC(C)C)cc1` (stereo not shown) [Practolol, reference compound], the 80% Recovery Time in data set [1] (time for 80% recovery of heart rate after 40-minute i.v. infusion, dogs) is 61 min; in data set [6], > 60 min.
As to `COC(=O)c1ccc(OCC(O)CNC(C)C)cc1.Cl` (stereo not shown) [Example I, Methyl 4-[2-Hydroxy 3-(isopropylamino)propoxy]benzoate Hydrochloride], the ED50 in data set [1] (setting [9]) was determined as 3.7 ± 1.3 mg/kg. The “80% Recovery Time” value in data set [1] (setting [10]) was 34 ± 11. Besides, the figures for the half-life in data set [2], in data set [3] and in data set [5] were > 60 min, 60 min and > 180 min, respectively. In data set [7] (setting [11]), the Cardioselectivity is 19. Moreover, the “pA2 Trachea” value in data set [4] was determined as 5.5.
Consider `COC(=O)c1ccccc1OCC(O)CNC(C)(C)C` (stereo not shown) [Example X, Methyl 2-[2-Hydroxy-3-(t-butylamino)propoxy]benzoate Hydrochloride Hemihydrate], for which, in data set [1] (setting [9]), the ED50 amounted to 0.14 ± 0.04 mg/kg. In addition, the “80% Recovery Time” value was 12 ± 1 in data set [1] (setting [10]) and 22 ± 5 in data set [6] (in min). The half-life was 7 min in data set [2], 17 min in data set [3] and 5 min in data set [5].
As to `COC(=O)c1ccccc1OCC(O)CNCCc1ccc(OC)c(OC)c1.O=C(O)C(=O)O` (stereo not shown) [Example XI, Methyl 2-[2-Hydroxy-3-(3,4-dimethoxyphenethylamino)propoxy]benzoate Oxalate], the half-life in data set [2] amounted to 8 min; in data set [3], 120 min; in data set [5], 3 min. Further, the “80% Recovery Time” value in data set [6] (in min) worked out at 30 ± 4. Also, the Cardioselectivity in data set [7] (setting [11]) came out at 16. Besides, the “pA2 Trachea” value in data set [4] was found to be 7.1.
Take `COC(=O)c1ccc(OCC(O)CNC(C)(C)C)cc1` (stereo not shown) [VIII, Methyl 4-[2-Hydroxy-3-(t-butylamino)propoxy]benzoate]: the Cardioselectivity in data set [7] was 32. Also, the “pA2 Trachea” value in data set [4] is 5.4.
In the case of `CCCOC(=O)CCc1ccc(OCC(O)CNC(C)C)cc1.Cl` (stereo not shown) [XII, n-Propyl 3-[4-[2-Hydroxy-3-(isopropylamino)propoxy]phenyl]propionate Hydrochloride], the Cardioselectivity in data set [7] (setting [11]) came to 1.6. In addition, the “pA2 Trachea” value in data set [4] is on record as 5.2.
With `COC(=O)CCc1ccccc1OCC(O)CNC(C)C` (stereo not shown) [XIII], the half-life in data set [2] was 11 min; in data set [3], 120 min; in data set [5], < 2.5 min. Further, the “80% Recovery Time” value in data set [6] (in min) is given as 29 ± 6.
For the compound `COC(=O)c1ccccc1OCC(O)CNC(C)C` (stereo not shown) [Example IX, Methyl 2-[2-Hydroxy-3-(isopropylamino)propoxy]benzoate], the ED50 in data set [1] (setting [9]) was determined as 0.176 ± 0.02 mg/kg. In addition, the “80% Recovery Time” value in data set [1] (setting [10]) and in data set [6] (in min) was 15 ± 2 in each case. Besides, the half-life worked out at 7 min in data set [2], 38 min in data set [3] and 19 min in data set [5]. In addition, the Kb in data set [8] is 6.31 nM. Further, the Cardioselectivity in data set [7] (setting [11]) was found to be 2. Moreover, the “pA2 Trachea” value in data set [4] was determined as 7.9.
On to `C=CCOC(=O)c1ccccc1OCC(O)CNC(C)C` (stereo not shown) [Example XVI], for which the “80% Recovery Time” value in data set [6] (in min) was 36 ± 5. Also, the Kb in data set [8] and in data set [4] was 12.6 nM in each case. Further, the Cardioselectivity in data set [7] (setting [11]) is recorded as 1.
Regarding `COC(=O)CCc1ccc(OCC(O)CNC(C)C)cc1.Cl` (stereo not shown) [Example IV, Methyl 3-[4-[2-Hydroxy-3-(isopropylamino)propoxy]-phenyl]propionate Hydrochloride], in data set [1] (setting [9]), the ED50 stood at 1.35 ± 0.52 mg/kg. Moreover, the “80% Recovery Time” value was found to be 12 ± 2 in data set [1] (setting [10]) and 12 ± 3 in data set [6] (in min). Also, the half-life is 44 min in data set [2], 41 min in data set [3] and < 5 min in data set [5]. Moreover, in data set [7] (setting [11]), the Cardioselectivity was 30. Also, the Kb in data set [4] was 2510 nM.
Turning to `CC(C)NCC(O)COc1cccc2ccccc12` (stereo not shown) [Propranolol, reference compound], the ED50 in data set [1] (Canis lupus familiaris, iv, 40 min, read-out: Potency mg/kg/40 min) was 0.06 ± 0.01 mg/kg. Besides, the “80% Recovery Time” value in data set [1] (iv, 40 min) was 42 ± 9.
For the compound `COC(=O)CCc1ccc(OCC(O)CNC(C)(C)C)cc1` (stereo not shown) [V], the ED50 in data set [1] (setting [9]) was found to be 4.5 ± 1.5 mg/kg. Also, the “80% Recovery Time” value is 7 ± 2 in data set [1] (setting [10]) and 15 ± 3 in data set [6] (in min). The Cardioselectivity in data set [7] (setting [11]) worked out at 4. For the same compound, the “pA2 Trachea” value in data set [4] was 5.9.
Regarding `C=CCOC(=O)c1ccc(OCC(O)CNC(C)C)cc1` (stereo not shown) [Example XIV, 3-Propenyl 4-[2-Hydroxy-3-(isopropylamino)propoxy]benzoate], the values for the Kb in data set [8] and in data set [4] were 501 nM and 2000 nM, respectively. In addition, the Cardioselectivity in data set [7] (setting [11]) turned out to be 4.
On to `C=CCOC(=O)c1cccc(OCC(O)CNC(C)C)c1` (stereo not shown) [Example XV], for which the 80% Recovery Time in data set [6] is > 60 min. Besides, the Kb in data set [8] was 126 nM; in data set [4], 63.1 nM. For the same compound, the Cardioselectivity in data set [7] is on record as 2.
Turning to `COC(=O)CCc1ccc(OCC(O)CNCCc2ccc(OC)c(OC)c2)cc1` (stereo not shown) [VI], the half-life in data set [2] stood at 44 min; in data set [3], 13 min; in data set [5], 2 min. Further, in data set [6] (in min), the “80% Recovery Time” value came to 14 ± 3. In data set [7], this compound gave a Cardioselectivity of 20. Also, the “pA2 Trachea” value in data set [4] amounted to 5.2.
Consider `CCOC(=O)c1ccc(OCC(O)CNC(C)C)cc1.Cl` (stereo not shown) [II, Ethyl 4-[2-Hydroxy-3-(isopropylamino)propoxy]benzoate Hydrochloride], for which, in data set [1] (setting [9]), the ED50 turned out to be 5.7 ± 1.6 mg/kg. In data set [1] (setting [10]), the “80% Recovery Time” value is recorded as 56 ± 6. Also, the half-life is > 60 min in data set [2] and 60 min in data set [3]. Further, in data set [7] (setting [11]), the Cardioselectivity came out at 2.5. Besides, the “pA2 Trachea” value in data set [4] is reported as 6.1.

The values are drawn from patent US4593119A, “Method for treatment or prophylaxis of cardiac disorders” (American Hospital Supply Corporation, priority 1982, dated 1986).
